From US10292945B2, “Dressings that contain active substance” (BEIERSDORF AG, priority 2011, dated 2019)

Test: Active substance release from acrylate adhesive matrix into pig skin by Franz's cells, HPLC determination
Format: in vitro ADME
Source text: The release of the active ingredients within the product is advantageously adjusted such that an effect can still be perceived even after a period of 2 days. The delayed effect of the active substances used is achieved here from combination of active substance content and auxiliaries. The release of the active substances can be controlled over a wide time range via the use of e.g. plasticizers and fillers. Examples of such systems are pain patches on the market that contain opiates such as fentanyl, which are applied over several days up to a week and ensure an absolutely uniform release of the active substance over the entire application time. For the determination of the release rate of vanillyl butyl ether (VBE) from e.g. acrylate compositions, it was incorporated into the adhesive compositions in an amount of 0.75% and the release was ascertained over the time in pig skin by means of Franz's cells. Determination of the released amounts into the full-thickness skin was then carried out by HPLC.
One possible measure to increase the active ingredient release is the use of solubilizers. […] For the two other additives, lower values were determined, meaning that decyl oleate (Cetiol V) in particular is a preferred solubilizer in the adhesive composition. […]

With `CCCCCCCC/C=C\CCCCCCCC(=O)OCCCCCCCCCC` [Cetiol V, decyl oleate] the “Effect of added solubilizer on released amount of VBE in pig skin” value was “significant increase in the released amount of VBE”.
